Molecules are shown by their SMILES. Counter-ions that a name gives are not always drawn.

One test has as its target T1, recombinant human arginase 2 (Homo sapiens, UniProt P78540).
T1 construct: made in house; host or cells: E. coli
T1 sequence (P78540 23-354): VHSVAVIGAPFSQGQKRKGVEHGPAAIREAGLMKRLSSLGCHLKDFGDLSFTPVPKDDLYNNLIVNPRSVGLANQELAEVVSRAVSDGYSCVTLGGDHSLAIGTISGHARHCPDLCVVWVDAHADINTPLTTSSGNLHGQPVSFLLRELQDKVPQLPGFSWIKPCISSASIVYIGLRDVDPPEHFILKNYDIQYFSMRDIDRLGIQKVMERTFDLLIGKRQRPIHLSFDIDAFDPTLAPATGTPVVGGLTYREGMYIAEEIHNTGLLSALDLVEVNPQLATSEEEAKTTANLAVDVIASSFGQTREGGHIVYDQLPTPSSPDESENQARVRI
Description: Human arginase inhibition assay (colorimetric urea detection), arginase 2. It counts as biochemical. Conditions: IC50 class, hydrochloride salts, 1 h at 37° C., pH 7.4, 10 mM L-arginine, 200 μM MnCl2, read-out: Activity Class (ARG II). The protocol:
(§1) The inhibitory activities of the compounds of the invention were assessed using recombinant human arginase 1 and 2. Both enzymes were biosynthesized using a prokaryotic expression system (E. coli) and purified by fast protein liquid chromatography (FPLC). The compounds were screened in 96-well plates at the total reaction volume of 100 μL. Briefly, recombinant enzymes were incubated with the tested compounds for 1 h at 37° C. in the reaction buffer (100 mM sodium phosphate buffer, 130 mM NaCl, 1 mg/mL BSA, pH 7.4) containing substrate (10 mM L-arginine hydrochloride) and cofactor (200 μM MnCl2). The assay is based on the detection of urea, which is generated during the conversion of L-arginine into L-ornithine catalyzed by ARG1 or ARG2. The colorimetrically detectable product was developed by adding a mixture of reagent A (4 mM oPA, 50 mM boric acid, 1 M sulfuric acid, 0.03% Brij-35) and reagent B (4 mM NED, 50 mM boric acid, 1 M sulfuric acid, 0.03% Brij-35) in equal proportions. The absorbance for each well was measured at 515 nm and the enzyme inhibition was calculated. The urea production in the absence of any tested compound was considered as maximal enzyme activity. The absorbance at the absence of arginase (background) was subtracted from all the values. Normalized values were analyzed using GraphPad Prism 7.0 software by plotting inhibition curves and determining the IC50 values.
(§2) The inhibitory activity toward humane arginase 1 of the hydrochloride salts of the exemplary compounds according to the invention is presented in Table 5.
The inhibitory activity toward humane arginase 2 of the hydrochloride salts of the selected exemplary compounds according to the invention is presented in Table 6.
For the compound `N[C@@H](Cc1ccccc1)C(=O)N1C[C@@H](CCB(O)O)C[C@](N)(C(=O)O)C1` [Example 11, (3R,5S)-1-(L-Phenylalanyl)-3-amino-5-(2-boronoethyl)piperidine-3-carboxylic acid dihydrochloride], the IC50 lay in the range of 1000 to 10000 nM.

Another test deals with T2, recombinant human arginase 1 (Homo sapiens, UniProt P05089).
T2 construct: made in house; host or cells: E. coli
T2 sequence (P05089 1-322): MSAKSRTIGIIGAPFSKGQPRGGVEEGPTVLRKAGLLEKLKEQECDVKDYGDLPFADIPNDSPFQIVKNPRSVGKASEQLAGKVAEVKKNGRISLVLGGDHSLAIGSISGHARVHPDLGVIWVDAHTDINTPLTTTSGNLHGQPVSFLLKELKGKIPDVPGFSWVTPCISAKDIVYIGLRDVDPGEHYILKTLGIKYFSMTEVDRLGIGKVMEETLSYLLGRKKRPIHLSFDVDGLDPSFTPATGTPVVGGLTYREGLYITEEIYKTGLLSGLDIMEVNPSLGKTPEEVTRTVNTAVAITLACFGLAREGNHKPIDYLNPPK
Description: Human arginase inhibition assay (colorimetric urea detection), arginase 1. In kind it is biochemical. The settings on record: IC50 class, hydrochloride salts, 1 h at 37° C., pH 7.4, 10 mM L-arginine, 200 μM MnCl2, read-out: Activity Class (ARG I). As for the experimental part:
as §1, §2
Take `N[C@@H](Cc1c[nH]c2ccccc12)C(=O)N1C[C@@H](CCB(O)O)C[C@](N)(C(=O)O)C1` [Example 18, (3R,5S)-1-(L-Tryptophyl)-3-amino-5-(2-boronoethyl)piperidine-3-carboxylic acid dihydrochloride]: the IC50 is 250 to 499 nM.

For the compound `NC(=O)C[C@H](N)C(=O)N1C[C@@H](CCB(O)O)C[C@](N)(C(=O)O)C1` [Example 26, (3R,5S)-1-(L-Asparaginyl)-3-amino-5-(2-boronoethyl)piperidine-3-carboxylic acid dihydrochloride], the IC50 was 250 to 499 nM. Still for that read-out and setting: in the case of `COC(=O)[C@@]1(N)C[C@H](CCB(O)O)CN(C(=O)[C@H](C)N)C1` [Example 28, (2-((3S,5R)-1-(L-Alanyl)-5-amino-5-(methoxycarbonyl)piperidin-3-yl)ethyl) boronic acid dihydrochloride] it was > 10000 nM; in that of `N[C@]1(C(=O)O)C[C@H](CCB(O)O)CN(C(=O)[C@@H]2CCCN2)C1` [Example 4, (3R,5S)-1-(L-Prolyl)-3-amino-5-(2-boronoethyl)piperidine-3-carboxylic acid dihydrochloride], 250 to 499 nM. For `C[C@H](N)C(=O)N1C[C@H](CCB(O)O)C[C@](N)(C(=O)O)C1` [Example 32, (3R,5R)-1-(L-Alanyl)-3-amino-5-(2-boronoethyl)piperidine-3-carboxylic acid dihydrochloride], the IC50 is > 10000 nM. Still for that read-out and setting: then `N[C@@H](Cc1ccccc1)C(=O)N1C[C@@H](CCB(O)O)C[C@](N)(C(=O)O)C1` [Example 11, (3R,5S)-1-(L-Phenylalanyl)-3-amino-5-(2-boronoethyl)piperidine-3-carboxylic acid dihydrochloride], with 1 to 249 nM; and `C[C@H](N)C(=O)N1C[C@@H](CCB(O)O)C[C@@](N)(C(=O)O)C1` [Example 33, (3S,5S)-1-(L-Alanyl)-3-amino-5-(2-boronoethyl)piperidine-3-carboxylic acid dihydrochloride], with > 10000 nM. The same measure, in the same setting: then `CCC[C@H](N)C(=O)N1C[C@@H](CCB(O)O)C[C@](N)(C(=O)O)C1` [Example 25, (3R,5S)-3-Amino-1-((S)-2-aminopentanoyl)-5-(2-boronoethyl)piperidine-3-carboxylic acid dihydrochloride], with 250 to 499 nM; and `CC(C)[C@H](N)C(=O)N1C[C@@H](CCB(O)O)C[C@](N)(C(=O)O)C1` [Example 5, (3R,5S)-1-(L-Valyl)-3-amino-5-(2-boronoethyl)piperidine-3-carboxylic acid dihydrochloride], with 250 to 499 nM; and `CNCC(=O)N1C[C@@H](CCB(O)O)C[C@](N)(C(=O)O)C1` [Example 27, (3R,5S)-3-Amino-5-(2-boronoethyl)-1-(methylglycyl)piperidine-3-carboxylic acid dihydrochloride], with 250 to 499 nM. `Cn1cc(C[C@@H](N)C(=O)N2C[C@@H](CCB(O)O)C[C@](N)(C(=O)O)C2)c2ccccc21` [Example 24, (3R,5S)-3-amino-5-(2-boronoethyl)-1-(1-methyl-D-tryptophyl)piperidine-3-carboxylic acid dihydrochloride]: the IC50 fell in the range of 500 to 999 nM. On to `CC[C@H](C)[C@H](N)C(=O)N1C[C@@H](CCB(O)O)C[C@](N)(C(=O)O)C1` [Example 9, (3R,5S)-1-(L-Isoleucyl)-3-amino-5-(2-boronoethyl)piperidine-3-carboxylic acid dihydrochloride], for which the IC50 was in the range of 500 to 999 nM. Take `C[C@@H]1N(C(=O)[C@@H](N)CCCNC(=N)N)C[C@@H](CCB(O)O)C[C@]1(N)C(=O)O` [Example 31, (2S,3R,5S)-1-(L-Arginyl)-3-amino-5-(2-boronoethyl)-2-methylpiperidine-3-carboxylic acid trihydrochloride]: the IC50 lay in the range of 250 to 499 nM. For `NC(=O)NCCC[C@H](N)C(=O)N1C[C@@H](CCB(O)O)C[C@](N)(C(=O)O)C1` [Example 21, (3R,5S)-3-Amino-1-((S)-2-amino-5-ureidopentanoyl)-5-(2-boronoethyl) piperidine-3-carboxylic acid dihydrochloride], the IC50 is 250 to 499 nM. Still for that read-out and setting: then `CC(C)C[C@H](N)C(=O)N1C[C@@H](CCB(O)O)C[C@](N)(C(=O)O)C1` [Example 8, (3R,5S)-1-(L-Leucyl)-3-amino-5-(2-boronoethyl)piperidine-3-carboxylic acid dihydrochloride], with 500 to 999 nM. Still for that read-out and setting: then `C[C@@H](O)[C@H](N)C(=O)N1C[C@@H](CCB(O)O)C[C@](N)(C(=O)O)C1` [Example 12, (3R,5S)-1-(L-Threonyl)-3-amino-5-(2-boronoethyl)piperidine-3-carboxylic acid dihydrochloride], with 250 to 499 nM; and `N[C@@H](CC(=O)O)C(=O)N1C[C@@H](CCB(O)O)C[C@](N)(C(=O)O)C1` [Example 14, (3R,5S)-1-(L-Aspartyl)-3-amino-5-(2-boronoethyl)piperidine-3-carboxylic acid dihydrochloride], with 500 to 999 nM; and `N=C(N)NCCC[C@H](N)C(=O)N1C[C@@H](CCB2OC(=O)CC(CC(=O)O)(C(=O)O)O2)C[C@](N)(C(=O)O)C1` (stereo partly drawn) [Example 29, (3R,5S)-1-(L-Arginyl)-3-amino-5-(2-(4-carboxy-4-(carboxymethyl)-6-oxo-1,3,2-dioxaborinan-2-yl)ethyl)piperidine-3-carboxylic acid trihydrochloride], with 1 to 249 nM. Same read-out and setting: then `C[C@@H](N)C(=O)N1C[C@@H](CCB(O)O)C[C@](N)(C(=O)O)C1` [Example 23, (3R,5S)-1-(D-Alanyl)-3-amino-5-(2-boronoethyl)piperidine-3-carboxylic acid dihydrochloride], with 1000 to 10000 nM; and `C[C@H](N)C(=O)N1C[C@H](CCB(O)O)C[C@@](N)(C(=O)O)C1` [Example 2, (3S,5R)-1-(L-Alanyl)-3-amino-5-(2-boronoethyl)piperidine-3-carboxylic acid dihydrochloride], with > 10000 nM; and `N[C@@H](CS)C(=O)N1C[C@@H](CCB(O)O)C[C@](N)(C(=O)O)C1` [Example 19, (3R,5S)-1-(L-Cysteinyl)-3-amino-5-(2-boronoethyl)piperidine-3-carboxylic acid dihydrochloride], with 500 to 999 nM.

In the case of `CSCC[C@H](N)C(=O)N1C[C@@H](CCB(O)O)C[C@](N)(C(=O)O)C1` [Example 17, (3R,5S)-1-(L-Methionyl)-3-amino-5-(2-boronoethyl)piperidine-3-carboxylic acid dihydrochloride], the IC50 is 250 to 499 nM.

With `N[C@@H](CCC(=O)O)C(=O)N1C[C@@H](CCB(O)O)C[C@](N)(C(=O)O)C1` [Example 15, (3R,5S)-1-(L-Glutamyl)-3-amino-5-(2-boronoethyl)piperidine-3-carboxylic acid dihydrochloride], the IC50 fell in the range of 500 to 999 nM. The same measure, in the same setting: then `N[C@@H](Cc1ccc(O)cc1)C(=O)N1C[C@@H](CCB(O)O)C[C@](N)(C(=O)O)C1` [Example 10, (3R,5S)-1-(L-Tyrosyl)-3-amino-5-(2-boronoethyl)piperidine-3-carboxylic acid dihydrochloride], with 250 to 499 nM; and `NC(=O)CC[C@H](N)C(=O)N1C[C@@H](CCB(O)O)C[C@](N)(C(=O)O)C1` [Example 16, (3R,5S)-1-(L-Glutaminyl)-3-amino-5-(2-boronoethyl)piperidine-3-carboxylic acid dihydrochloride], with 250 to 499 nM. As to `NCCC[C@H](N)C(=O)N1C[C@@H](CCB(O)O)C[C@](N)(C(=O)O)C1` [Example 22, (3R,5S)-3-Amino-5-(2-boronoethyl)-1-((S)-2,5-diaminopentanoyl)piperidine-3-carboxylic acid trihydrochloride], the IC50 is 250 to 499 nM.

For the origin of these results see patent US10851099B2, “Dipeptide piperidine derivatives” (OncoArendi Therapeutics S.A., priority 2018, dated 2020).
